Results taken from ChEMBL document CHEMBL1201862, “PubChem BioAssay data set” (2004).
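Compound exposure: 48 hours, 5 concentrations, 96-well plates. GI50 = concentration required for 50% inhibition of growth.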 The source made the active and inactive calls. Rule as the data show it: active = GI50 up to about 1.1 µM and inactive = higher.

Key:
Experiment in all cases: NCI-60 cell line screen, 48 h
[1] = test system: 786-0
[2] = test system: A498
[3] = test system: A549
[4] = test system: ACHN
[5] = test system: BT-549
[6] = test system: CAKI-1
[7] = test system: CCRF-CEM
[8] = test system: COLO 205
[9] = test system: DU-145
[10] = test system: EKVX
[11] = test system: HCC 2998
[12] = test system: HCT-116
[13] = test system: HCT-15
[14] = test system: HL-60
[15] = test system: HOP-62
[16] = test system: HOP-92
[17] = test system: HT-29
[18] = test system: Hs-578T
[19] = test system: IGROV-1
[20] = test system: K562
[21] = test system: KM12
[22] = test system: LOX IMVI
[23] = test system: M14
[24] = test system: MCF7
[25] = test system: MDA-MB-231
[26] = test system: MDA-MB-435
[27] = test system: MDA-N
[28] = test system: MOLT-4
[29] = test system: Malme-3M
[30] = test system: NCI-H226
[31] = test system: NCI-H23
[32] = test system: NCI-H460
[33] = test system: NCI-H522
[34] = test system: NCI/ADR-RES
[35] = test system: OVCAR-3
[36] = test system: OVCAR-4
[37] = test system: OVCAR-5
[38] = test system: OVCAR-8
[39] = test system: PC-3
[40] = test system: RPMI-8226
[41] = test system: RXF 393
[42] = test system: SF-268
[43] = test system: SF-295
[44] = test system: SF-539
[45] = test system: SK-MEL-28
[46] = test system: SK-MEL-2
[47] = test system: SK-MEL-5
[48] = test system: SK-OV-3
[49] = test system: SN12C
[50] = test system: SNB-19
[51] = test system: SNB-75
[52] = test system: SR
[53] = test system: SW-620
[54] = test system: T47D
[55] = test system: TK-10
[56] = test system: U-251
[57] = test system: UACC-257
[58] = test system: UACC-62
[59] = test system: UO-31

For `O=C(O)/C=C/C(=O)Nc1cccc2c1-c1ccccc1C2=O`, the GI50 [1] was 9.53 µM (inactive), the GI50 [2] was 53 µM (inactive) and the GI50 [3] was 20.9 µM (inactive). For the same molecule, the GI50 [4] was 17.3 µM (inactive), the GI50 [5] was 16.9 µM (inactive) and the GI50 [6] was 4.26 µM (inactive). For the same molecule, the GI50 [7] was 4.32 µM (inactive), the GI50 [8] was 13.1 µM (inactive) and the GI50 [9] was 10.3 µM (inactive). For the same molecule, the GI50 [10] was > 90.8 µM (inactive), the GI50 [11] was 22.2 µM (inactive) and the GI50 [12] was 42.8 µM (inactive). The GI50 [13] was 10.2 µM, the GI50 [14] was 1.28 µM (inactive) and the GI50 [15] was 8.75 µM (inactive). For the same molecule, the GI50 [16] was 4.06 µM (inactive), the GI50 [17] was 22.3 µM (inactive) and the GI50 [18] was 3.76 µM (inactive). For the same molecule, the GI50 [19] was 4.75 µM (inactive), the GI50 [20] was 3.91 µM (inactive) and the GI50 [21] was 16.9 µM (inactive). The GI50 [22] was 8.91 µM (inactive), the GI50 [23] was 9.4 µM (inactive) and the GI50 [24] was 11.3 µM (inactive). For the same molecule, the GI50 [25] was 13.3 µM (inactive), the GI50 [26] was 2.85 µM (inactive) and the GI50 [27] was 2.99 µM (inactive). For the same molecule, the GI50 [28] was 2.63 µM (inactive), the GI50 [29] was 8.28 µM (inactive) and the GI50 [30] was 31.2 µM (inactive). The GI50 [31] was 18.2 µM (inactive), the GI50 [32] was 3.67 µM (inactive) and the GI50 [33] was 3.25 µM (inactive). The GI50 [34] was 10.3 µM (inactive), the GI50 [35] was 2.21 µM (inactive) and the GI50 [36] was 22.9 µM (inactive). The GI50 [37] was > 63.4 µM (inactive), the GI50 [38] was 21.6 µM (inactive) and the GI50 [39] was 5.7 µM (inactive). For the same molecule, the GI50 [40] was 8.81 µM (inactive), the GI50 [41] was 8.2 µM (inactive) and the GI50 [42] was 16.3 µM (inactive). The GI50 [43] was 3.57 µM (inactive), the GI50 [44] was 3.46 µM (inactive) and the GI50 [45] was > 29.6 µM (inactive). The GI50 [46] was 3.56 µM (inactive), the GI50 [47] was 4.39 µM (inactive) and the GI50 [48] was 22.9 µM (inactive). For the same molecule, the GI50 [49] was 36.6 µM (inactive), the GI50 [50] was 17.9 µM (inactive) and the GI50 [51] was > 20.6 µM (inactive). The GI50 [52] was 9.2 µM (inactive), the GI50 [53] was 5.53 µM (inactive) and the GI50 [54] was > 51.5 µM (inactive). The GI50 [55] was 5.68 µM (inactive), the GI50 [56] was 5.27 µM (inactive) and the GI50 [57] was 3.75 µM (inactive). For the same molecule, the GI50 [58] was 6.58 µM (inactive) and the GI50 [59] was 11.8 µM (inactive).
`N/N=C(\c1nc2ccc([N+](=O)[O-])cc2nc1O)C(O)c1ccc(Cl)c(Cl)c1` (stereo not drawn) was tested, and the GI50 [1] was > 100 µM (inactive), the GI50 [2] was > 100 µM (inactive) and the GI50 [3] was > 100 µM (inactive). The GI50 [4] was 54.1 µM (inactive), the GI50 [5] was > 100 µM (inactive) and the GI50 [6] was > 100 µM (inactive). For the same molecule, the GI50 [7] was 15.8 µM (inactive), the GI50 [8] was > 100 µM (inactive) and the GI50 [9] was > 100 µM (inactive). The GI50 [10] was > 100 µM (inactive), the GI50 [11] was > 100 µM (inactive) and the GI50 [12] was 71.3 µM (inactive). The GI50 [13] was greater than 100 µM, the GI50 [14] was 47.4 µM (inactive) and the GI50 [15] was > 100 µM (inactive). For the same molecule, the GI50 [16] was > 100 µM (inactive), the GI50 [17] was > 100 µM (inactive) and the GI50 [18] was > 100 µM (inactive). The GI50 [19] was > 100 µM (inactive), the GI50 [20] was 96.6 µM (inactive) and the GI50 [21] was 28.3 µM (inactive). For the same molecule, the GI50 [22] was 33.4 µM (inactive), the GI50 [23] was > 100 µM (inactive) and the GI50 [24] was > 100 µM (inactive). For the same molecule, the GI50 [25] was > 100 µM (inactive), the GI50 [26] was 71.6 µM (inactive) and the GI50 [27] was > 100 µM (inactive). The GI50 [28] was 22 µM (inactive), the GI50 [29] was > 100 µM (inactive) and the GI50 [30] was > 100 µM (inactive). The GI50 [31] was > 100 µM (inactive), the GI50 [32] was 82.4 µM (inactive) and the GI50 [33] was 13.9 µM (inactive). The GI50 [34] was > 100 µM (inactive), the GI50 [35] was > 100 µM (inactive) and the GI50 [36] was > 100 µM (inactive). For the same molecule, the GI50 [37] was > 100 µM (inactive), the GI50 [38] was > 100 µM (inactive) and the GI50 [39] was > 100 µM (inactive). The GI50 [40] was 22.8 µM (inactive), the GI50 [41] was > 100 µM (inactive) and the GI50 [42] was > 100 µM (inactive). For the same molecule, the GI50 [43] was > 100 µM (inactive), the GI50 [44] was > 100 µM (inactive) and the GI50 [45] was > 100 µM (inactive). The GI50 [46] was > 100 µM (inactive), the GI50 [47] was 61.8 µM (inactive) and the GI50 [48] was 88.1 µM (inactive). For the same molecule, the GI50 [49] was > 100 µM (inactive), the GI50 [50] was > 100 µM (inactive) and the GI50 [51] was > 100 µM (inactive). The GI50 [52] was 61.5 µM (inactive), the GI50 [53] was 56.9 µM (inactive) and the GI50 [54] was 67.3 µM (inactive). The GI50 [55] was > 100 µM (inactive), the GI50 [56] was > 100 µM (inactive) and the GI50 [57] was > 100 µM (inactive). For the same molecule, the GI50 [58] was > 100 µM (inactive) and the GI50 [59] was 26.7 µM (inactive).
